Laboratory results taken from patent US20070081573A1, “Process for inhibiting biofilm formation on and/or removing biofilm from an enhanced tube” (Ashland Licensing and Intellectual Property LLC, priority 2005, published 2007).
“Also recorded” adds a separate entry of the source.

Test system: pseudomonas aerigenosa (ATCC 27853) biofilm
Assay: Biofouling test on enhanced tube and smooth tube in laboratory scale cooling tower system (modified P-U-L-S-E fouling monitor)
Assay type: cell-based

| SMILES | effect on inhibiting and/or removing biofilm | reduction of biofilm deposits (summary of test results) |
| --- | --- | --- |
| [O][Cl+][O-] [chlorine dioxide] | effective; also recorded: more effective than stabilized bromine | reduce the deposit of biofilm |
| BrBr [bromine, reference compound] | little effect | not effective alone |
